Data set [1] is described as follows: In vitro release of DOC in PBS pH 7.4. The data set is classed as physicochemical. The following applies: PBS pH 7.4, within 24 h. The source says: The mass spectrum of the HRK‐19 peptide was shown in Figure S1 of the Supporting Information. And it can be seen the mass of HRK‐19 peptide was 1959.80 g mol^−1, which was consistent with the theoretical mass (1959.20 g mol^−1). The HRK‐19 peptide had ≥95% purity, as confirmed by analytical reversed‐phase (RP)‐high performance liquid chromatography (HPLC) (Figure S2, Supporting Information). As shown in Figure S3 of the Supporting Information, the HRK‐19 peptide contains no apparent secondary structure such as helix and Beta turn. […] To prepare a tumor‐targeting peptide, in this study, Asn‐Gly‐Arg‐Arg‐Gly‐Asp (NGRRGD) and three amino acids (HAV) were conjugated with apoptosis‐inducing peptide sequence AVPIAQK, forming bifunctional peptide (HRK‐19 peptide, HAVRNGRRGDGGAVPIAQK). As shown schematically in Figure 2 A, self‐assembly of the DOC/peptide NPs was prepared by the film dispersion method. […] It can be seen that the DL, and particle size increased with increase of drug/copolymer ratio in feed, whereas, the EE decreased accordingly. In consideration of DL and stability, the sample of S2 was chose for further applications and was characterized in detail. The DL and EE of DOC were 4.52 ± 0.18% and 90.50 ± 3.68%. […]

Data set [2] concerns A549 cells. In words: Microtubule formation (α-tubulin fluorescence microscopy). The data set is classed as cell-based, human. To be noted: A549, 4 h. The source says:
Agents targeting microtubules are often used in cancer therapy. The taxanes act to stabilize microtubules and dampen microtubule dynamics to prevent the normal formation of mitotic spindles.34 Both paclitaxel and DOC can bind to β‐tubulin in assembled tubulin, thereby reducing depolymerization and leading to cell death.35 Therefore, we examined the effects of DOC on microtubule formation and cell apoptosis on A549 cells. […] However, at 10 × 10^−9 M, DOC begins to arrest A549 cells by interfering with the assembling/disassembling microtubule spindle.
Figure 5 The effects of DOC on the microtubule formation on the A549 cell lines. A549 cells were seeded on coverslip and treated with docetaxel of indicated concentrations for 4 h. The microtubule was determined by fluorescence microscopy. The red indicates the α‐tubulin and the blue is the DAPI stain for DNA. Scale bar: 20 µm.
For the expression and localization of α‐tubulin, cells were incubated with the antibodies against α‐tubulin (Abcam, USA) followed by incubation with TRITC‐conjugated secondary antibodies. The images were obtained using a confocal microscope (DM6000 CS, Leica, Germany).

For data set [3], the system named is A549 cells. In words: Cell apoptosis assay (Annexin V-FITC/PI flow cytometry). To be noted: A549, 24 h. The data set is classed as cell-based, human. Here is the method: Given the effectiveness of transporting hydrophobic drug‐DOC into A549 cancer cells by the bifunctional peptide NPs, we carried out the cytotoxicity experiments to further evaluate the anticancer activity of DOC/peptide NPs on A549 by Flow cytometry analysis. Flow cytometry analysis was performed to monitor the percentage of cell apoptosis after the cells being stained by Annexin V‐Fluorescein isothiocyanate/propidium iodide (Annexin V‐FITC/PI) apoptosis detection kit, and A549 cells incubated in media only were used as control (Figure 6 A). The percentage of apoptosis of A549 cells (early and late apoptosis) incubated for 24 h with DOC/peptide containing DOC 5 × 10^−9 and 10 × 10^−9 M were 11.56 ± 0.91% and 20.66 ± 1.89%, respectively. For free DOC, they were 8.87 ± 0.79% and 15.73 ± 0.56%, respectively. Obviously, DOC‐loaded bifunctional peptide NPs induced significant cell apoptosis.
To investigate the apoptotic effect of the DOC/peptide NPs, flow cytometry was performed using an ESP Elite flow cytometer (BeckmaneCoulter, Miami, FL, USA) with FITC‐conjugated Annexin V/propidium iodide (PI, BD PharMingen) staining as per the manufacturer's instructions. A549 cells cultured in 6‐well plates were treated with DOC/peptide NPs, free DOC, and blank peptide. […] Both early apoptotic (Annexin V‐positive, PI‐negative) and late apoptotic (Annexin V‐positive and PI‐positive) cells were measured.
On the technique in general: Flow cytometry measures light scatter and fluorescence of single cells or particles in a stream.

For `CC(=O)O[C@@]12CO[C@@H]1C[C@H](O)[C@@]1(C)C(=O)[C@H](O)C3=C(C)[C@@H](OC(=O)[C@H](O)[C@@H](NC(=O)OC(C)(C)C)c4ccccc4)C[C@@](O)([C@@H](OC(=O)c4ccccc4)[C@H]21)C3(C)C` [DOC, Docetaxel], the “Peak release of DOC, % of the total drug” value in data set [1] is listed as 85.37 ± 1.83%. Also, the “Concentration at which DOC begins to arrest cells by interfering with the microtubule spindle” value in the data set with A549 cells [2] amounted to 10 nM. Also, the figures for the “Percentage of apoptosis (early and late apoptosis)” value with A549 cells [3] (DOC 5 × 10^−9 M) and in the data set on A549 cells [3] (DOC 10 × 10^−9 M) were 8.87 ± 0.79% and 15.73 ± 0.56%, respectively.
